Measurements published in patent publication US6617117B1, “MAP kinases: polypeptides, polynucleotides and uses thereof” (Medical Research Council, priority 1996, dated 2003).

Biological target: T1, SAPK3 (Rattus norvegicus, UniProt Q63538)
T1 construct: expressed in transfected cells; host or cells: human KB and 293 cells (vector pSG5)
T1 sequence (Q63538 1-367): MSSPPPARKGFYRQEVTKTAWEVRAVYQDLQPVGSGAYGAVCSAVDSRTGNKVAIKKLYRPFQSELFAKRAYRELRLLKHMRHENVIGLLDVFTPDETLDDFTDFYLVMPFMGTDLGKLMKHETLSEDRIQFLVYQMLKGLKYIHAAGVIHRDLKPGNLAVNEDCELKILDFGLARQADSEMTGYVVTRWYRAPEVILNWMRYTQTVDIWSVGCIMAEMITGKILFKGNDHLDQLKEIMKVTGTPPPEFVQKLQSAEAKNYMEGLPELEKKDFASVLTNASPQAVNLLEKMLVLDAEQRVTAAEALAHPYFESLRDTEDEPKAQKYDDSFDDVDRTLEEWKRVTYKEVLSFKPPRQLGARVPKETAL
Assay: Activation of transfected myc epitope-tagged SAPK3 in KB and 293 cells, immunoprecipitation and MBP assay
Format: cell-based, human
Experimental: FIG. 11. SAPK3 is activated by cytokines and cellular stresses in KB and 293 cells. KB cells (A) or 293 cells (B) were transiently transfected with a DNA construct expressing a myc epitope-tagged SAPK3. Cells in DMEM were stimulated for 15 min with 0.5 M sorbitol (an osmotic shock), 20 ng/ml IL-1α, 100 ng/ml TNFa, 0.5 mM sodium arsenite (a chemical stress), 100 ng/ml of EGF or 300 ng/ml TPA, or for 30 min with […] anisomycin or 10 min with 100 ng/ml IGF-1. UV-C irradiation of cells was carried out at 60 J/m2 (KB cells) or 200 J/m2 (293 cells) and the cells then left for a further 30 min at 37° C. before lysis. The myc epitope-tagged SAPK3 was immunoprecipitated from cell lysates using the 9E10 monoclonal antibody and assayed with MBP as substrate. […] After UV-C irradiation, SAPK3 activity in the extracts was 0.18 U/mg (KB cells) and 0.1 U/mg (293 cells).
Cell culture and transient transfections. 293, KB and COS-7 cells were cultured in Dulbecco's modified Eagles' Medium (DMEM) supplemented with 10% foetal calf serum, at 37° C., in an atmosphere of 5% CO2. Transfections of 293 cells were carried out using the calcium-phosphate method. […]

C[S+]([O-])c1ccc(-c2nc(-c3ccncc3)c(-c3ccc(F)cc3)[nH]2)cc1 (stereo not shown) [SB 203580]
Prevention of activation of transfected SAPK3 by osmotic shock: did not prevent
